Several values for one entry are separate records, joined by “and”; a condition that tells them apart may be missing. Equal entries are not always repeated. Where two headings read alike, the source gives them in different places.
Experiments:
SK(+)GAS = assay: GAS growth by OD600 nm of culture; format: cell-based, Group A Streptococcus; settings: Streptococcus; for activity at 2.5 µg/mL: read-out: GAS Growth (% control), compound conc. 2.5 μg/ml; for activity at 10 µg/mL: read-out: GAS Growth (% control), compound conc. 10 μg/ml; for activity at 20 µg/mL: read-out: GAS Growth (% control), compound conc. 20 μg/ml; for activity at 30 µg/mL: read-out: GAS Growth (% control), compound conc. 30 μg/ml; for activity at 40 µg/mL: read-out: GAS Growth (% control), compound conc. 40 μg/ml; for activity at 50 µg/mL: read-out: GAS Growth (% control), compound conc. 50 μg/ml; for activity at 70 µg/mL: read-out: GAS Growth (% control), compound conc. 70 μg/ml; for activity at 5 µg/mL: read-out: GAS Growth (% control), compound conc. 5 μg/ml; for activity at 0.1 µg/mL: read-out: GAS Growth (% control), compound conc. 0.1 μg/ml; for activity at 0.3 µg/mL: read-out: GAS Growth (% control), compound conc. 0.3 μg/ml

Experimental for streptokinase (SK): SK− Ecoli and SKCtr1's dose response relationship with these compounds were then examined.
The effects of 10 hit compounds out of the 23 identified were further tested by dose response assays. […] These compounds were tested for inhibition of ska expression by measuring SK activity in supernatants of GAS exposed to the test compound or control vehicle alone (DMSO). SK(+)GAS were cultured with hit compounds at a dose range of 10 nM to 100 μM at 37° C. for 16-20 hours. Supernatants of SK(+)GAS cultures were measured for SK activity using chromogenic substrate 2403 (Diapharma group Inc., West Chester, Ohio), according to the manufacturer's instruction and simultaneously monitored for nonspecific effects on GAS growth by measuring OD600 nm.
The positive compounds identified in dose response assays are subjected to SK assay to identify compounds inhibiting SK expression in SK(+)GAS. Briefly, SK(+)GAS is grown at the presence of hit compounds at a dose range determined by dose response assays within which SK(−) GAS growth is inhibited less than 10% while SKKanGAS growth is inhibited more than 50% under 20 μg/ml kanamycin.

Row | Compound | SK Expression (% control) (streptokinase (SK); compound conc. 10 μg/ml) | SK Expression (% control) (streptokinase (SK); compound conc. 20 μg/ml) | SK Expression (% control) (streptokinase (SK); compound conc. 30 μg/ml) | SK Expression (% control) (streptokinase (SK); compound conc. 40 μg/ml) | SK Expression (% control) (streptokinase (SK); compound conc. 50 μg/ml) | SK Expression (% control) (streptokinase (SK); compound conc. 60 μg/ml) | SK Expression (% control) (streptokinase (SK); compound conc. 70 μg/ml) | activity at 2.5 µg/mL (SK(+)GAS) [%] | activity at 10 µg/mL (SK(+)GAS) [%] | activity at 20 µg/mL (SK(+)GAS) [%] | activity at 30 µg/mL (SK(+)GAS) [%] | activity at 40 µg/mL (SK(+)GAS) [%] | activity at 50 µg/mL (SK(+)GAS) [%] | activity at 70 µg/mL (SK(+)GAS) [%] | SK Expression (% control) (streptokinase (SK); compound conc. 5 μg/ml) | activity at 5 µg/mL (SK(+)GAS) [%] | SK Expression (% control) (streptokinase (SK); compound conc. 0.1 μg/ml) | SK Expression (% control) (streptokinase (SK); compound conc. 0.3 μg/ml) | SK Expression (% control) (streptokinase (SK); compound conc. 1.0 μg/ml) | SK Expression (% control) (streptokinase (SK); compound conc. 3 μg/ml) | also measured
1 | C=CCn1c(SCc2ccccc2)nc2c(c1=O)C(C)(C)Cc1ccccc1-2 [compound 25203] | 96 % control | 84 % control | 70 % control | 63 % control | 58 % control | 52 | 60 | 89 | 92 | 100 | 110 | 118 | 125 | 143 | – | – | – | – | – | – | SK Expression (% control) (streptokinase (SK); compound conc. 2.5 μg/ml): 110 % control; activity at 60 µg/mL (SK(+)GAS; read-out: GAS Growth (% control), compound conc. 60 μg/ml): 132%
2 | C=CCn1c(OCC)nc2c(c1=O)C1(CCCCC1)Cc1ccccc1-2 [CCG-102622, 3-Allyl-2-ethoxy-3H-spiro[benzo[h]quinazoline-5,1′-cyclohexan]-4(6H)-one] | 41 % control | 38 % control | – | 23 % control | – | – | – | – | 100 | 103 | – | 113 | – | – | 43 | 99 | – | – | – | – | –
3 | C=CCn1c(SCCOC)nc2c(c1=O)C(C)(C)Cc1ccccc1-2 [CCG-102624, 3-Allyl-2-(2-methoxyethylthio)-5,5-dimethyl-5,6-dihydrobenzo[h]quinazolin-4(3H)-one] | 33 % control and 29 % control | 30 % control | 26 % control | 23 % control | – | 28 | – | 101 | 94 | 93 | – | 87 | – | 113 | 30 | 93 | 90 | 97 | 79 | 35 | activity at 0.1 µg/mL (SK(+)GAS): 100%; activity at 0.3 µg/mL (SK(+)GAS): 98%
4 | C=CCn1c(SCc2ccccc2)nc2c(c1=O)C1(CCCCC1)Cc1ccccc1-2 [compound 575097] | 92 % control and 88 % control | 82 % control and 79 % control | 79 % control and 77 % control | 72 % control and 74 % control | 70 % control and 67 % control | 63 | 65 | – | 89 | 88 | 88 | 86 | 86 | – | – | – | – | – | – | – | –
5 | C=CCn1c(SCCO)nc2c(c1=O)C(C)(C)Cc1ccccc1-2 [CCG-203041, 3-Allyl-2-(2-hydroxyethylthio)-5,5-dimethyl-5,6-dihydrobenzo[h]quinazolin-4(3H)-one] | 57 % control | – | 28 % control | – | – | 12 | – | 104 | – | 107 | – | 60 | – | 50 | – | 106 | 93 | 90 | 90 | 87 | activity at 0.1 µg/mL (SK(+)GAS): 100%; activity at 0.3 µg/mL (SK(+)GAS): 102%
